We go through 21 compounds from patent publication US9732075B2, “Benzimidazole-proline derivatives” (IDORSIA PHARMACEUTICALS LTD, priority 2012, dated 2017).

Experiment [1] has as its target human orexin-2 receptor (Homo sapiens (Human), UniProt O43614). Briefly: In vitro assay: intracellular calcium measurements (FLIPR), antagonistic activity. In kind it is cell-based. Conditions: CHO cells expressing human orexin-2 receptor, orexin-A agonist, geometric mean, read-out: IC50 Ox2. In outline:
(§1)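 In this FLIPR calcium assay, antagonists were given 120 min on CHO cells with human OX1 or OX2 receptor before orexin-A (3 nM final) was added. Peak fluorescence was measured at 1 s intervals against the uninhibited agonist peak, and IC50s were averaged geometrically.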

For experiment [2], the target named is human orexin-1 receptor (Homo sapiens (Human), UniProt O43613). The experiment is described as above. The experiment is classed as cell-based. Conditions: CHO cells expressing human orexin-1 receptor, orexin-A agonist, geometric mean, read-out: IC50 Ox1. In outline: as §1
human orexin-1 receptor, sequence (O43613 whole entry): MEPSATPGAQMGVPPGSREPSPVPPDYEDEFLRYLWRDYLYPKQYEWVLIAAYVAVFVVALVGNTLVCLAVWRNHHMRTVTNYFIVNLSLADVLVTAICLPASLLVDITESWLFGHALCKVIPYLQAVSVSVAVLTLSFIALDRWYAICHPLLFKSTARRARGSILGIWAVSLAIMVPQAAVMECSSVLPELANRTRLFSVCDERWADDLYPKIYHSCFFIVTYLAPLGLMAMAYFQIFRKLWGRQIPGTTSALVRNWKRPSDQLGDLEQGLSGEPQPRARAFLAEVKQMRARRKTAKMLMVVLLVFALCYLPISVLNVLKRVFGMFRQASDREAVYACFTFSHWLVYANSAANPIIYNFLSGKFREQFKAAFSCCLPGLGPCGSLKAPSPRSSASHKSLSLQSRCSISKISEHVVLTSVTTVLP

human orexin-2 receptor, sequence (O43614 whole entry): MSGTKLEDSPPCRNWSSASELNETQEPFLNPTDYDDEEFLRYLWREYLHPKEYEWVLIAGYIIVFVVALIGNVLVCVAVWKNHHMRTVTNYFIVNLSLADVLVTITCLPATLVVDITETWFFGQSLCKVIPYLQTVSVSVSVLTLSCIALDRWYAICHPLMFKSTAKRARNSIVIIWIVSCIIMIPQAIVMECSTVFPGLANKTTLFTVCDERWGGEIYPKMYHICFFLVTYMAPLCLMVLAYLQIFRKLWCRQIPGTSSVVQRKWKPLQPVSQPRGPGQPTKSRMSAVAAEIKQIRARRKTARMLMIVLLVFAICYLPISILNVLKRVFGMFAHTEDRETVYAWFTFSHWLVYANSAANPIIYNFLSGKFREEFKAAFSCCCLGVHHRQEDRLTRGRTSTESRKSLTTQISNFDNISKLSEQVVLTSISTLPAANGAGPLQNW

As usually defined, the IC50 is the midpoint of a concentration-inhibition curve. Turning to `CSc1ccc2nc([C@@H]3CCCN3C(=O)c3cnc(C)nc3-c3ccc(Cl)c(Cl)c3)[nH]c2c1` [Ex. 1.49], the results for the IC50 in experiment [1] and in experiment [2] were 42 nM and 32 nM, respectively.

On to `C=C1C[C@@H](c2nc3cc(C(F)(F)F)c(Cl)cc3[nH]2)N(C(=O)c2nc(C)sc2-c2ccc(C)c(C)c2)C1` [Ex. 6.142], for which the half-maximal inhibitory concentration (IC50) in experiment [1] turned out to be 22 nM; in experiment [2], 17 nM.

For `C=C1C[C@@H](c2nc3c(C)cccc3[nH]2)N(C(=O)c2nc(C)sc2-c2cccc(Cl)c2)C1` [Ex. 6.44], the figures for the IC50 in experiment [1] and in experiment [2] were 2 nM and 10 nM, respectively.

As for `Cc1cc2[nH]c([C@@H]3[C@@H](C)CCN3C(=O)c3c(F)cccc3-c3cccnc3)nc2cc1Cl` [Ex. 4.107], the IC50 in experiment [1] stood at 1760 nM; in experiment [2] it was 47 nM.

As for `Cc1ccc(C(=O)N2CC[C@H](C)[C@H]2c2nc3c(C)c(Cl)ccc3[nH]2)c(-c2ccccc2)c1` [Ex. 4.168], the IC50 in experiment [1] stood at 486 nM; in experiment [2], 10 nM.

As for `COCCn1c([C@]2(C)CCCN2C(=O)c2cc(C)ccc2-c2ccccc2F)nc2cc(C)c(C)cc21` [Ex. 7.54], the results for the IC50 in experiment [1] and in experiment [2] were 270 nM and 87 nM, respectively.

Consider `CO[C@@H]1C[C@@H](c2nc3c(C)c(Cl)ccc3[nH]2)N(C(=O)c2nc(C)sc2-c2cccc(Cl)c2)C1` [Ex. 3.9], for which the IC50 in experiment [1] was found to be 2 nM; in experiment [2] it was 1 nM.

Regarding `Cc1ccc(-c2cccnc2)c(C(=O)N2CCC[C@@]2(C)c2nc3ccc(Cl)c(C)c3[nH]2)c1` [Ex. 5.217], the IC50 in experiment [1] worked out at 274 nM; in experiment [2], 98 nM.

For `CO[C@@H]1C[C@@H](c2nc3c(C)c(Cl)ccc3[nH]2)N(C(=O)c2cc(C)ccc2-n2nccn2)C1` [Ex. 3.2], the values for the IC50 in experiment [1] and in experiment [2] were 6 nM and 13 nM, respectively.

For the compound `Cc1ccc(-n2cccn2)c(C(=O)N2CC[C@H](C)[C@H]2c2nc3c(C)c(Cl)ccc3[nH]2)c1` [Ex. 4.64], the figures for the IC50 in experiment [1] and in experiment [2] were 800 nM and 5 nM, respectively.

Consider `Cc1ccc(-n2nccn2)c(C(=O)N2CCC[C@@]2(C)c2nc3c(Cl)cccc3[nH]2)c1` [Ex. 5.26], for which the half-maximal inhibitory concentration (IC50) is 197 nM in experiment [1] and 39 nM in experiment [2].

As to `Cc1cc(C(=O)N2CCC[C@@]2(C)c2nc3cc(C)c(C)cc3n2C)c(-n2nccn2)cc1C` [Ex. 7.17], the IC50 in experiment [1] is 19 nM; in experiment [2] it was 4 nM.

With `Cc1cccc(-c2sc(C)nc2C(=O)N2CC[C@H](C)[C@H]2c2nc3cc(C(F)(F)F)ccc3[nH]2)c1` [Ex. 4.138], the values for the half-maximal inhibitory concentration (IC50) in experiment [1] and in experiment [2] were 1340 nM and 2 nM, respectively.

`COc1ccc2nc([C@@H]3CCCN3C(=O)c3cnc(C)nc3-c3ccc(Br)c(Cl)c3)[nH]c2c1` [Ex. 1.33]: the IC50 in experiment [1] was determined as 48 nM; in experiment [2] it was 76 nM.

With `Cc1nc(C(=O)N2CCCC2c2nc3c4c(ccc3[nH]2)OCCO4)c(-c2ccccc2)s1` (stereo not drawn) [Ex. 1.140], the IC50 in experiment [1] was determined as 46 nM; in experiment [2], 192 nM.

For the compound `Cc1ccc(-c2ccc(C)cc2C(=O)N2CCC[C@@]2(C)c2nc3cc(C(F)(F)F)c(Cl)cc3[nH]2)cc1` [Ex. 5.154], the half-inhibitory concentration (IC50) in experiment [1] is 61 nM; in experiment [2], 59 nM.

With `CCc1ccc(-c2sc(C)nc2C(=O)N2CCC[C@H]2c2nc3cccc(SC)c3[nH]2)cc1` [Ex. 1.69], the IC50 in experiment [1] amounted to 31 nM; in experiment [2] it was 37 nM.

`Cc1cc2[nH]c([C@@H]3[C@@H](C)CCN3C(=O)c3ccccc3-n3nccn3)nc2cc1Cl` [Ex. 4.76]: the IC50 in experiment [1] is 113 nM; in experiment [2], 8 nM.

`C[C@@]1(c2nc3ccc(C(F)(F)F)cc3[nH]2)CCCN1C(=O)c1nc(-c2ccccc2F)sc1-c1ccc(F)cc1` [Ex. 5.294]: the figures for the IC50 in experiment [1] and in experiment [2] were 714 nM and 39 nM, respectively.

With `C=C1CN(C(=O)c2nc(C)sc2-c2cccc(C)c2)C(C)(c2nc3cc(OC)ccc3[nH]2)C1` (stereo not drawn) [Ex. 6.143], the IC50 in experiment [1] came out at 32 nM; in experiment [2] it was 13 nM.

On to `CO[C@H]1CN(C(=O)c2c(F)cccc2-n2nccn2)C(C)(c2nc3c(C)c(Cl)ccc3[nH]2)C1` (stereo partly drawn) [Ex. 3.42], for which the IC50 in experiment [1] stood at 395 nM; in experiment [2], 193 nM.
